Key:
[1] = tested on: synthesis of LTB4 in human whole blood; assay: Human whole blood LTB4 production inhibition assay; assay type: cell-based; details: heparinized human whole blood, calcimycin 20 μM, plasma LTB4; read-out: HuWB IC50
Summary of the method: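 Heparinized human whole blood was preincubated with compound for 15 min at 37° C, then stimulated with calcimycin (20 μM final, in PBS pH 7.4) for a further 30 min at 37° C. Plasma LTB4 was quantified by antibody-based homogeneous time-resolved fluorescence.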

[2] = target: T1, recombinant human FLAP protein (Homo sapiens, UniProt P20292); assay: FLAP binding assay (SPA, displacement of [125I]L-691,831); details: membranes of sf9 cells expressing human FLAP, [125I]L-691,831 probe; read-out: hFLAP binding IC50
T1 construct: made in house; host or cells: Sf9 insect cells (membrane fraction, 100,000 x g pellet)
T1 sequence (P20292 1-161): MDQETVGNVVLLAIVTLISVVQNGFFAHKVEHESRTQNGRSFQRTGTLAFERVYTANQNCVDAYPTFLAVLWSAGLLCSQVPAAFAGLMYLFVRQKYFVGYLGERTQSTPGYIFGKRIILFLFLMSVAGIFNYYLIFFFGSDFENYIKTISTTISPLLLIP
Summary of the method: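 Membranes from sf9 cells expressing human FLAP (5 μg/well) were bound to WGA SPA beads (200 μg/well). Nonspecific binding was defined with 10 μM unlabelled L-691,831.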

Row | SMILES | IC50 [1] | IC50 [2]
1 | Cc1noc(-c2ccc(NC(=O)C3(c4ccc(-c5cnc(N)nc5)cc4)CCC3)nc2)n1 [Example 100, 1-[4-(2-aminopyrimidin-5-yl)phenyl]-N-[5-(3-methyl-1,2,4-oxadiazol-5-yl)pyridin-2-yl]cyclobutanecarboxamide] | 184 nM | 1.85 nM
2 | Nc1ncc(-c2ccc(C3(C(=O)Nc4ccc(OCc5ccccc5)cc4)CCOCC3)cc2)cn1 [Example 85, 4-[4-(2-aminopyrimidin-5-yl)phenyl]-N-[4-(benzyloxy)phenyl]tetrahydro-2H-pyran-4-carboxamide] | 849 nM | 12.5 nM
3 | Cc1nc(-c2ccc(NC(=O)C(C)(c3ccc(-c4cnc(N)nc4)cc3)C(C)C)cc2)cs1 (stereo not drawn) [Example 117, 2-[4-(2-aminopyrimidin-5-yl)phenyl]-2,3-dimethyl-N-[4-(2-methyl-1,3-thiazol-4-yl)phenyl]butanamide] | 1530 nM | 9.3 nM
4 | Cc1nc(-c2ccc(NC(=O)C3(c4ccc(-c5cnc(N)c(C)c5)cc4)CCOCC3)nc2)cs1 [Example 152, 4-[4-(6-amino-5-methylpyridin-3-yl)phenyl]-N-[5-(2-methyl-1,3-thiazol-4-yl)pyridin-2-yl]tetrahydro-2H-pyran-4-carboxamide] | 896 nM | 34.5 nM
5 | COc1ccc(NC(=O)C2(c3ccc(-c4cnc(N)nc4)cc3)CCC2)nc1 [Example 217, 1-[4-(2-aminopyrimidin-5-yl)phenyl]-N-(5-methoxypyridin-2-yl)cyclobutanecarboxamide] | 389 nM | 8.25 nM
6 | COc1cncc(-c2ccc(NC(=O)C3(c4ccc(-c5cnc(N)nc5)nc4)CCOCC3)nc2)c1 [Example 132, 4-[6-(2-aminopyrimidin-5-yl)pyridin-3-yl]-N-(5′-methoxy-3,3′-bipyridin-6-yl)tetrahydro-2H-pyran-4-carboxamide] | 1510 nM | 220 nM
7 | COc1cc(NC(=O)C2(c3ccc(-c4cnc5[nH]ccc5c4)cc3)CCC2)ccn1 [Example 190, N-(2-methoxypyridin-4-yl)-1-[4-(1H-pyrrolo[2,3-b]pyridin-5-yl)phenyl]cyclobutanecarboxamide] | 149 nM | 2.25 nM
8 | CC(C)C(C)(C(=O)Nc1ccncc1)c1ccc(-c2cnc(N)nc2)cc1 (stereo not drawn) [Example 169, 2-[4-(2-aminopyrimidin-5-yl)phenyl]-2,3-dimethyl-N-(pyridin-4-yl)butanamide] | 330 nM | 5.25 nM
9 | Cn1nccc1-c1ccc(NC(=O)C2(c3ccc(-c4cnc(N)nc4)cc3)CCC2)nc1 [Example 106, 1-[4-(2-aminopyrimidin-5-yl)phenyl]-N-[5-(1-methyl-1H-pyrazol-5-yl)pyridin-2-yl]cyclobutanecarboxamide] | 195 nM | 3 nM
10 | Cc1nc(-c2ccc(NC(=O)C3(c4ccc(-c5cnc(N)c(C)n5)cc4)CCOCC3)nc2)cs1 [Example 182, 4-[4-(5-amino-6-methylpyrazin-2-yl)phenyl]-N-[5-(2-methyl-1,3-thiazol-4-yl)pyridin-2-yl]tetrahydro-2H-pyran-4-carboxamide] | 1060 nM | 32.5 nM
11 | COc1ccc(NC(=O)C2(c3ccc(-c4cnc(N)nc4)cc3)CCC2)cn1 [Example 213, 1-[4-(2-aminopyrimidin-5-yl)phenyl]-N-(6-methoxypyridin-3-yl)cyclobutanecarboxamide] | 333 nM | 12.6 nM
12 | Nc1ncc(-c2ccc(C3(C(=O)Nc4ccc(-c5cnco5)cc4)CCOCC3)cc2)cn1 [Example 27, 4-[4-(2-aminopyrimidin-5-yl)phenyl]-N-[4-(1,3-oxazol-5-yl)phenyl]tetrahydro-2H-pyran-4-carboxamide] | 207 nM | 5.5 nM
13 | Nc1ncc(-c2ccc(C3(C(=O)Nc4ccc(CN5CCS(=O)(=O)CC5)cc4)CCOCC3)cc2)cn1 [Example 148, 4-[4-(2-aminopyrimidin-5-yl)phenyl]-N-{4-[(1,1-dioxidothiomorpholin-4-yl)methyl]phenyl}tetrahydro-2H-pyran-4-carboxamide] | 3980 nM | 360 nM
14 | Cn1cnc(-c2ccc(NC(=O)C3(c4ccc(-c5cnc(N)nc5)cc4)CCOCC3)nc2)c1 [Example 144, 4-[4-(2-aminopyrimidin-5-yl)phenyl]-N-[5-(1-methyl-1H-imidazol-4-yl)pyridin-2-yl]tetrahydro-2H-pyran-4-carboxamide] | 1590 nM | 66 nM
15 | Cc1ccc2nc(NC(=O)C3(c4ccc(-c5cnc(N)nc5)cc4)CCOCC3)sc2c1 [Example 8, 4-[4-(2-aminopyrimidin-5-yl)phenyl]-N-(6-methyl-1,3-benzothiazol-2-yl)tetrahydro-2H-pyran-4-carboxamide] | 3560 nM | 25 nM
16 | N#Cc1ccc(NC(=O)C2(c3ccc(-c4cnc(N)nc4)nc3)CCC2)cc1Cl [Example 91, 1-[6-(2-aminopyrimidin-5-yl)pyridin-3-yl]-N-(3-chloro-4-cyanophenyl)cyclobutane-carboxamide] | 240 nM | 5.45 nM
17 | Cc1nccn1-c1ccc(NC(=O)C2(c3ccc(-c4cnc(N)nc4)cc3)CCOCC2)cc1 [Example 224, 4-[4-(2-aminopyrimidin-5-yl)phenyl]-N-[4-(2-methyl-1H-imidazol-1-yl)phenyl]tetrahydro-2H-pyran-4-carboxamide] | 718 nM | 30 nM
18 | Nc1ncc(-c2ccc(C3(C(=O)Nc4ccc(-c5ccccc5)nc4)CCOCC3)cc2)cn1 [Example 67, 4-[4-(2-aminopyrimidin-5-yl)phenyl]-N-(6-phenylpyridin-3-yl)tetrahydro-2H-pyran-4-carboxamide] | 1210 nM | 14.5 nM
19 | N#Cc1ccc(NC(=O)C2(c3ccc(-c4cnc(N)nc4)nc3)CCC2)nc1 [Example 94, 1-[6-(2-aminopyrimidin-5-yl)pyridin-3-yl]-N-(5-cyanopyridin-2-yl)cyclobutanecarboxamide] | 857 nM | 65 nM
20 | Nc1ncc(-c2ccc(C3(C(=O)Nc4cccnn4)CCC3)cc2)cn1 [Example 225, 1-[4-(2-aminopyrimidin-5-yl)phenyl]-N-(pyridazin-3-yl)cyclobutanecarboxamide] | 1370 nM | 78 nM
21 | Cc1cc(NC(=O)C2(c3ccc(-c4cnc(N)nc4)cc3)CCC2)ccn1 [Example 186, 1-[4-(2-aminopyrimidin-5-yl)phenyl]-N-(2-methylpyridin-4-yl)cyclobutanecarboxamide] | 334 nM | 3.2 nM
22 | CC(C)C(C)(C(=O)Nc1cccnc1)c1ccc(-c2cnc(N)nc2)cc1 (stereo not drawn) [Example 184, 2-[4-(2-aminopyrimidin-5-yl)phenyl]-2,3-dimethyl-N-(pyridin-3-yl)butanamide] | 1470 nM | 39 nM
23 | COc1ccc(-c2ccc(NC(=O)C(C)(c3ccc(-c4cnc5c(c4)CCN5)cc3)C(C)C)nc2)cn1 (stereo not drawn) [Example 164, 2-[4-(2,3-dihydro-1H-pyrrolo[2,3-b]pyridin-5-yl)phenyl]-N-(6'-methoxy-3,3'-bipyridin-6-yl)-2,3-dimethylbutanamide] | 315 nM | 1.9 nM
24 | Nc1ncc(-c2ccc(C3(C(=O)Nc4cc(C(F)(F)F)no4)CCOCC3)cc2)cn1 [Example 125, 4-[4-(2-aminopyrimidin-5-yl)phenyl]-N-[3-(trifluoromethyl)-1,2-oxazol-5-yl]tetrahydro-2H-pyran-4-carboxamide] | 5560 nM | 173 nM
